Data published in PubChem BioAssay (NCI).
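Briefly, cells in 96-well plates were exposed to five compound concentrations for 48 h, and endpoints were estimated by linear interpolation. At the GI50, growth is halved. Definition used: TGI = concentration required for complete inhibition of growth.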

Experiments:
Assay in all cases: NCI anticancer screen, dose series, 48 h
[1] = system: BT-549 breast
[2] = system: SR leukemia
[3] = system: SW-620 colon
[4] = system: T-47D breast
[5] = system: DU-145 prostate
[6] = system: HCT-116 colon
[7] = system: SNB-19 CNS
[8] = system: SF-539 CNS
[9] = system: MDA-MB-468 breast
[10] = system: HT29 colon
[11] = system: MOLT-4 leukemia
[12] = system: SK-MEL-5 melanoma
[13] = system: UACC-257 melanoma
[14] = system: IGROV1 ovarian
[15] = system: CCRF-CEM leukemia
[16] = system: PC-3 prostate
[17] = system: UACC-62 melanoma
[18] = system: 786-0 renal
[19] = system: NCI/ADR-RES ovarian
[20] = system: MDA-MB-231 breast
[21] = system: A498 renal
[22] = system: HS 578T breast
[23] = system: HL-60(TB) leukemia
[24] = system: NCI-H522 lung
[25] = system: NCI-H226 lung
[26] = system: MDA-MB-435
[27] = system: SK-OV-3 ovarian
[28] = system: NCI-H23 lung
[29] = system: MALME-3M melanoma
[30] = system: OVCAR-3 ovarian
[31] = system: A549 NSCLC
[32] = system: SF-295 CNS
[33] = system: HOP-62 NSCLC
[34] = system: COLO 205 colon
[35] = system: HCC-2998 colon
[36] = system: NCI-H460 lung
[37] = system: SN12C renal
[38] = system: SF-268 CNS
[39] = system: EKVX NSCLC
[40] = system: HCT-15 colon
[41] = system: OVCAR-4 ovarian
[42] = system: UO-31 renal
[43] = system: K-562 leukemia
[44] = system: MCF7 breast
[45] = system: U251 CNS
[46] = system: OVCAR-8 ovarian
[47] = system: TK-10 renal
[48] = system: M14 melanoma
[49] = system: OVCAR-5 ovarian
[50] = system: LOX IMVI melanoma
[51] = system: KM12 colon
[52] = system: SK-MEL-28 melanoma
[53] = system: HOP-92 NSCLC
[54] = system: CAKI-1 renal
[55] = system: SNB-75 CNS
[56] = system: RPMI-8226 leukemia
[57] = system: ACHN renal
[58] = system: RXF 393 renal
[59] = system: SK-MEL-2 melanoma

O=C(CNc1nc(-c2ccccc2)cs1)Nc1ccc(Cl)cc1
GI50 [1]: 216 nM
TGI [1]: 643 nM
GI50 [2]: 25500 nM
TGI [2]: > 100000 nM
GI50 [3]: 683 nM
TGI [3]: 1910 nM
GI50 [4]: 337 nM
TGI [4]: 2440 nM
GI50 [5]: 1540 nM
TGI [5]: 2920 nM
GI50 [6]: 196 nM
TGI [6]: 796 nM
GI50 [7]: 777 nM
TGI [7]: 2130 nM
GI50 [8]: 518 nM
TGI [8]: 971 nM
GI50 [9]: 394 nM
TGI [9]: 877 nM
GI50 [10]: 348 nM
TGI [10]: 1320 nM
GI50 [11]: 364 nM
GI50 [12]: 440 nM
TGI [12]: 851 nM
GI50 [13]: 1060 nM
TGI [13]: 3290 nM
GI50 [14]: 554 nM
TGI [14]: 1750 nM
GI50 [15]: 243 nM
TGI [15]: > 21500 nM
GI50 [16]: 519 nM
TGI [16]: 2610 nM
GI50 [17]: 496 nM
TGI [17]: 1640 nM
GI50 [18]: 217 nM
TGI [18]: 469 nM
GI50 [19]: 213 nM
TGI [19]: 533 nM
GI50 [20]: 480 nM
TGI [20]: 1390 nM
GI50 [21]: 2150 nM
TGI [21]: 5020 nM
GI50 [22]: 1270 nM
TGI [22]: > 91300 nM
GI50 [23]: 304 nM
TGI [23]: 2260 nM
GI50 [24]: 152 nM
TGI [24]: 305 nM
GI50 [25]: 651 nM
TGI [25]: 2940 nM
GI50 [26]: 559 nM
TGI [26]: 2100 nM
GI50 [27]: 1390 nM
TGI [27]: 4540 nM
GI50 [28]: 407 nM
TGI [28]: 1020 nM
GI50 [29]: 507 nM
TGI [29]: 1200 nM
GI50 [30]: 552 nM
TGI [30]: 1310 nM
GI50 [31]: 1070 nM
TGI [31]: 2480 nM
GI50 [32]: 708 nM
TGI [32]: 2150 nM
GI50 [33]: 1350 nM
TGI [33]: 2730 nM
GI50 [34]: 1580 nM
TGI [34]: 3230 nM
GI50 [35]: 835 nM
TGI [35]: 2180 nM
GI50 [36]: 936 nM
TGI [36]: 3120 nM
GI50 [37]: 465 nM
TGI [37]: 1230 nM
GI50 [38]: 1880 nM
TGI [38]: 10100 nM
GI50 [39]: 530 nM
TGI [39]: 1200 nM
GI50 [40]: 315 nM
TGI [40]: 800 nM
GI50 [41]: 1340 nM
TGI [41]: 3170 nM
GI50 [42]: 654 nM
TGI [42]: 2030 nM
GI50 [43]: 224 nM
TGI [43]: > 100000 nM
GI50 [44]: 323 nM
TGI [44]: 860 nM
GI50 [45]: 339 nM
TGI [45]: 813 nM
GI50 [46]: 989 nM
GI50 [47]: 1070 nM
TGI [47]: 2520 nM
GI50 [48]: 341 nM
TGI [48]: 1680 nM
GI50 [49]: 1030 nM
TGI [49]: 2410 nM
GI50 [50]: 167 nM
TGI [50]: 616 nM
GI50 [51]: 828 nM
TGI [51]: 2530 nM
GI50 [52]: 1080 nM
TGI [52]: 2430 nM
GI50 [53]: 461 nM
TGI [53]: 2130 nM
GI50 [54]: 466 nM
TGI [54]: 1890 nM
GI50 [55]: 628 nM
TGI [55]: 5900 nM
GI50 [56]: 331 nM
TGI [56]: 2720 nM
GI50 [57]: 385 nM
TGI [57]: 846 nM
GI50 [58]: 514 nM
TGI [58]: 1170 nM
GI50 [59]: 646 nM
TGI [59]: 2070 nM
